The conditions of series [1]: Liquid; for mass density: 293.15 K, 101.33 kPa, Vibrating tube method; for Normal boiling temperature: Manometric method.
Series [2] in a line: refractive index (Na D-line) (dimensionless). Particulars: 293.15 K; 101.33 kPa; Liquid; Standard Abbe refractometry.

Numbers after ± are expanded uncertainties.

Regarding `CC(=O)O` [acetic acid], in series [1], the mass density (in general, the mass of a sample divided by its volume) was 1044.7 ± 0.3 kg/m3 and the Normal boiling temperature turned out to be 117.90 ± 0.4 °C. Besides, in series [2], the refractive index (in general, a measure of how strongly the sample bends light) is 1.3719 ± 0.0011.
For `COC(=O)/C=C\C(=O)OC` [dimethyl cis-butenedioate], in that order: 1160.8 ± 0.4 kg/m3, 202.00 ± 1 °C and 1.4415 ± 0.0011.
For `O=CO` [formic acid], in that order: 1221.1 ± 0.4 kg/m3, 101.00 ± 1 °C and 1.3709 ± 0.0011.
For `CCC(=O)O` [propanoic acid], in that order: 988.3 ± 0.3 kg/m3, 141.20 ± 0.4 °C and 1.391 ± 0.0011.
For `O` [water], the refractive index in series [2] turned out to be 1.3334 ± 0.001.

The record behind these values is the NIST ThermoML archive (doi:10.1016/j.fluid.2008.04.014).
